# Patent US9024018B2, “3-substituted-8-substituted-3H-imidazo[5,1-d][1,2,3,5]tetrazin-4-one compounds and their use” (Pharminox Limited, priority 2009, dated 2015)
# Legend:
# Type in all cases: cell-based
# SNB19M = test: MTT assay for 7-day toxicity, SNB19M glioma cells (stably transfected with MGMT, MGMT+); details: 7 day MTT assay, glioma line SNB19M
# Experimental: (§1) The cell culture techniques were carried out in a Class II microbiological safety cabinet which was swabbed with 70% IMS in distilled water before each use. Glioma cells were routinely cultured in Costar tissue culture flasks in RPMI 1640 liquid medium (containing 0.3 g/L L-glutamine and 2 g/L sodium bicarbonate) supplemented with 10% heat inactivated FBS (55-59° C.) for 1 hour to denature complement proteins which would otherwise evoke a cellular immune response resulting in cell lysis, 1% non-essential amino acids, 50 μg/mL gentamicin and 400 μg/mL G418 (vector selection reagent). Colorectal and melanoma cells were maintained in RPMI 1640 supplemented with 10% FBS. MRC-5 cells were cultured in EMEM+10% FBS, 1% pen/strep, 1% non-essential amino acids, 1% HEPES (1M) and 1% sodium bicarbonate.
# (§2) Cells were grown at 37° C. in a humidified incubator in an atmosphere comprising 95% air/5% CO2. Cells were sub-cultured when growth exceeded approximately 80% confluence, normally twice weekly. The medium was aspirated from the flask and approximately 0.8 mL trypsin-EDTA 1× solution added. The cells were re-incubated at 37° C. until they had visibly detached from the flask. The cells were re-suspended in 5 mL medium and 0.5-1 mL was transferred to a new flask (25 cm^2) with 7 mL culture medium. The cells were further incubated at 37° C. To minimize phenotypic drift, cells were disposed of once they had been subcultured 30 times. New batches of cells were thawed rapidly in 37° C. water bath once taken from liquid nitrogen storage and re-suspended in 10 mL of culture medium in a 25 cm^2 flask. Cells were passaged twice to allow normal growth to resume prior to use in experiments.
# (§3) Most test compounds, including temozolomide, were prepared as 100 mM stock solutions in DMSO and stored at −20° C. for not more than 6 months.
# (§4) MTT Assay for 7-Day Toxicity Assay
# (§5) This assay was first described in Mosmann, T., 1983, “Rapid colorimetric assay for cellular growth and survival: Application to proliferation and cytotoxicity assays”, Journal of Immunological Methods, Vol. 65, Nos. 1-2, pp. 55-63.
# (§6) Glioma cell lines, SNB19 and U373, both stably transfected with MGMT (i.e., SNB19M and U373M) or their respective vector controls (i.e., SNB19V and U373V); colorectal carcinoma cell lines, HCT116, HT29, and DLD1; melanoma cell line, SKMEL-28; breast cell line, MCF-7; and normal human fetal lung fibroblast cell line, MRC-5; were used at 60-80% confluence, during the logarithmic phase of growth.
# (§7) Following harvesting with trypsin/EDTA, cells in suspension were gently syringed through a 23 gauge needle to obtain a near-single cell suspension. Cells were then seeded into 96-well plates at the desired density in 180 μL culture medium if only one test compound was to be added, or in 160 μL if two test compounds were to be added in combination. Cells were allowed to attach overnight by incubation at 37° C. in 95% air/5% CO2. For the 7 day assay, the cell seeding densities for the different cell lines were as follows: SNB19V, SNB19M: 650 cells/well; U373V, U373M: 650 cells/well; SNB19VR, U373VR: 650 cells/well; HCT116, DLD-1, SKMEL-28, MRC-5, MCF-7: 400 cells/well.
# (§8) The two peripheral lanes of each plate were used as blank wells (cell free) and filled with 200 μL of medium in order to minimise medium evaporation from the plate. A separate time zero (T0) plate was set up alongside other plates. Serial dilutions in tissue culture medium of a 100 mM stock of test compound were prepared immediately before each assay to ten times the final concentrations required. 20 μL was added to each well (200 μL total media per well) to achieve final concentrations of 0.5 μM, 1 μM, 5 μM, 10 μM, 50 μM, 100 μM, 500 μM, and 1000 μM. A minimum of four wells received the same test compound concentration. To control wells, including those in the T0 plate, 20 μL of medium was added. […]
# SNB19V = test: MTT assay for 7-day toxicity, SNB19V glioma cells (vector control, MGMT-); details: Glioma cell, 168 h, 7 day MTT assay, glioma line SNB19V
# Experimental: as §1, §2, §3, §4, §5, §6, §7, §8
# U373M = test: MTT assay for 7-day toxicity, U373M glioma cells (stably transfected with MGMT, MGMT+); details: 7 day MTT assay, glioma line U373M
# Experimental: as §1, §2, §3, §4, §5, §6, §7, §8
# U373V = test: MTT assay for 7-day toxicity, U373V glioma cells (vector control, MGMT-); details: 7 day MTT assay, glioma line U373V
# Experimental: as §1, §2, §3, §4, §5, §6, §7, §8
Compound,GI50 (SNB19M),"GI50 (SNB19M; Glioma cell, 168 h)",GI50 (SNB19V),GI50 (U373M),"GI50 (U373M; Glioma cell, 168 h)",GI50 (U373V),"GI50 (U373V; Glioma cell, 168 h)"
"C#CCn1nnc2c(-c3nc(-c4nccs4)cs3)ncn2c1=O [WW-028, 8-(2,4′-Bithiazol-2′-yl)-3-(prop-2-ynyl)imidazo[5,1-d][1,2,3,5]tetrazin-4(3H)-one]",56.5 µM,< 70 µM,54 µM,35.1 µM,< 60 µM,50 µM,< 75 µM
"C#CCn1nnc2c(C(N)=S)ncn2c1=O [TT-001, 4-oxo-3-(prop-2-ynyl)-3,4-dihydroimidazo[5,1-d][1,2,3,5]tetrazine-8-carbothioamide]",,54.7 µM,63.2 µM,,53.4 µM,,42.3 µM
"Cn1nnc2c(-c3nc(C#N)cs3)ncn2c1=O [WW-006, 2-(3-Methyl-4-oxo-3,4-dihydroimidazo[5,1-d][1,2,3,5]tetrazin-8-yl)thiazole-4-carbonitrile]",,,< 45 µM,,< 60 µM,,< 75 µM
Cn1nnc2c(-c3nc(-c4ccccc4)cs3)ncn2c1=O [WW-002],,< 70 µM,< 45 µM,,< 60 µM,,< 75 µM
"C#CCn1nnc2c(C(=N)NCC(=O)OC)ncn2c1=O [SS-001, Methyl-2-(4-oxo-3-(prop-2-ynyl)-3,4-dihydroimidazo[5,1-d][1,2,3,5]tetrazine-8-carboximidamido)acetate hydroiodide]",,52.7 µM,59 µM,,55.1 µM,,51.2 µM
"C[S+]([O-])Cn1nnc2c(-c3nc(-c4ccccc4)cs3)ncn2c1=O (stereo not drawn) [WW-031, 3-(methylsulfinylmethyl)-8-(4-phenylthiazol-2-yl)imidazo[5,1-d][1,2,3,5]tetrazin-4(3H)-one]",,< 70 µM,< 45 µM,,< 60 µM,,< 75 µM
"Cn1nnc2c(-c3nc(C(=O)NC4CC4)cs3)ncn2c1=O [WW-008, N-Cyclopropyl-2-(3-methyl-4-oxo-3,4-dihydroimidazo[5,1-d][1,2,3, 5]tetrazin-8-yl)thiazole-4-carboxamide]",,< 70 µM,< 45 µM,,< 60 µM,,< 75 µM
"Cn1nnc2c(-c3nc(-c4ccsc4)cs3)ncn2c1=O [WW-012, 3-Methyl-8-(4-(thiophen-3-yl)thiazol-2-yl)imidazo[5,1-d][1,2,3,5]tetrazin-4(3H)-one]",,< 70 µM,< 45 µM,,< 60 µM,,< 75 µM
"Cn1nnc2c(-c3nc(-c4ccccc4)co3)ncn2c1=O [WW-037, 3-Methyl-8-(4-phenyloxazol-2-yl)imidazo[5,1-d][1,2,3,5]tetrazin-4(3H)-one]",,< 70 µM,< 45 µM,,< 60 µM,,< 75 µM
"C[S+]([O-])Cn1nnc2c(-c3nc(-c4cccs4)cs3)ncn2c1=O (stereo not drawn) [WW-036, 3-(methylsulfinylmethyl)-8-(4-(thiophen-2-yl)thiazol-2-yl)imidazo[5,1-d][1,2,3,5]tetrazin-4(3H)-one]",,< 70 µM,< 45 µM,,< 60 µM,,< 75 µM
"COCn1nnc2c(/C=C/c3cccs3)ncn2c1=O [MM-004, (E)-3-(Methoxymethyl)-8-(2-(thiophen-2-yl)vinyl)imidazo[5,1-d][1,2,3,5]tetrazin-4(3H)-one]",,5.1 µM,4.5 µM,,6.5 µM,,4.4 µM
"C#CCn1nnc2c(-c3nc(-c4ccccc4)cs3)ncn2c1=O [WW-004, 8-(4-phenylthiazol-2-yl)-3-(prop-2-ynyl)imidazo[5,1-d][1,2,3,5]tetrazin-4(3H)-one]",,< 70 µM,< 45 µM,,< 60 µM,,< 75 µM
"C#CCn1nnc2c(-c3nc(-c4cccs4)cs3)ncn2c1=O [WW-029, 3-(Prop-2-ynyl)-8-(4-(thiophen-2-yl)thiazol-2-yl)imidazo[5,1-d][1,2,3,5]tetrazin-4(3H)-one]",,< 70 µM,< 45 µM,,< 60 µM,,< 75 µM
"Cn1nnc2c(-c3nc4ccccc4[nH]3)ncn2c1=O [WW-062, 8-(1H-Benzo[d]imidazol-2-yl)-3-methylimidazo[5,1-d][1,2,3,5]tetrazin-4(3H)-one]",,< 70 µM,< 45 µM,,< 60 µM,,< 75 µM
"C#CCn1nnc2c(-c3nc(-c4ccccc4)cn3C)ncn2c1=O [WW-052, 8-(1-Methyl-4-phenyl-1H-imidazol-2-yl)-3-(prop-2-ynyl)imidazo[5,1-d][1,2,3,5]tetrazin-4(3H)-one]",,< 70 µM,< 45 µM,,< 60 µM,,< 75 µM
"Cn1nnc2c(-c3ncc(-c4ccccc4)o3)ncn2c1=O [WW-038, 3-Methyl-8-(5-phenyloxazol-2-yl)imidazo[5,1-d][1,2,3,5]tetrazin-4(3H)-one]",,< 70 µM,< 45 µM,,< 60 µM,,< 75 µM
"C#CCn1nnc2c(-c3nc(-c4ccccc4)c[nH]3)ncn2c1=O [WW-050, 8-(4-Phenyl-1H-imidazol-2-yl)-3-(prop-2-ynyl)imidazo[5,1-d][1,2,3,5]tetrazin-4(3H)-one]",,< 70 µM,< 45 µM,,< 60 µM,,< 75 µM
"Cn1nnc2c(-c3nc(-c4cccs4)c[nH]3)ncn2c1=O [WW-048, 3-Methyl-8-(4-(thiophen-2-yl)-1H-imidazol-2-yl)imidazo[5,1-d][1,2,3,5]tetrazin-4(3H)-one]",,< 70 µM,< 45 µM,,< 60 µM,,< 75 µM
"COCn1nnc2c(/C=C/c3ccc(C#N)cc3)ncn2c1=O [MM-001, (E)-4-(2-(3-(Methoxymethyl)-4-oxo-3,4-dihydroimidazo[5,1-d][1,2,3,5]tetrazin-8-yl)vinyl)benzonitrile]",,8.9 µM,9.1 µM,,8.8 µM,,7.7 µM
"Cn1nnc2c(-c3nc(C(=O)NC(C)(C)C)cs3)ncn2c1=O [WW-009, N-tert-Butyl-2-(3-methyl-4-oxo-3,4-dihydroimidazo[5,1-d][1,2,3,5]tetrazin-8-yl)thiazole-4-carboxamide]",,,< 45 µM,,< 60 µM,,< 75 µM
"COCn1nnc2c(-c3nc(-c4nccs4)cs3)ncn2c1=O [WW-015, 8-(2,4′-Bithiazol-2′-yl)-3-(methoxymethyl)imidazo[5,1-d][1,2,3,5]tetrazin-4(3H)-one]",,< 70 µM,,,< 60 µM,,< 75 µM
"CSCn1nnc2c(-c3nc(-c4ccccc4)cs3)ncn2c1=O [WW-030, 3-(Methylthiomethyl)-8-(4-phenylthiazol-2-yl)imidazo[5,1-d][1,2,3,5]tetrazin-4(3H)-one]",,< 70 µM,,,< 60 µM,,< 75 µM
C#CCn1nnc2c(-c3ncc(-c4ccccc4)o3)ncn2c1=O [WW-040],,< 70 µM,,,< 60 µM,,< 75 µM
COCn1nnc2c(-c3nc(-c4ccc5c(c4)OCO5)cs3)ncn2c1=O [WW-032],,< 70 µM,,,< 60 µM,,< 75 µM
"CSCn1nnc2c(-c3nc(-c4ccsc4)cs3)ncn2c1=O [WW-035, 3-(methylthiomethyl)-8-(4-(thiophen-3-yl)thiazol-2-1/1)imidazo[5,1-d][1,2,3,5]tetrazin-4(3H)-one]",,< 70 µM,,,< 60 µM,,< 75 µM
